Where a name gives a salt, the structure may show the parent alone. Read-outs that look alike come from different tables or passages of the source.
Biological target: T1, airway epithelial sodium currents (sodium channel) (UniProt A0A8I3MKE6+A0A8I3Q679+Q95165)
T1 sequence (A0A8I3MKE6 1-646): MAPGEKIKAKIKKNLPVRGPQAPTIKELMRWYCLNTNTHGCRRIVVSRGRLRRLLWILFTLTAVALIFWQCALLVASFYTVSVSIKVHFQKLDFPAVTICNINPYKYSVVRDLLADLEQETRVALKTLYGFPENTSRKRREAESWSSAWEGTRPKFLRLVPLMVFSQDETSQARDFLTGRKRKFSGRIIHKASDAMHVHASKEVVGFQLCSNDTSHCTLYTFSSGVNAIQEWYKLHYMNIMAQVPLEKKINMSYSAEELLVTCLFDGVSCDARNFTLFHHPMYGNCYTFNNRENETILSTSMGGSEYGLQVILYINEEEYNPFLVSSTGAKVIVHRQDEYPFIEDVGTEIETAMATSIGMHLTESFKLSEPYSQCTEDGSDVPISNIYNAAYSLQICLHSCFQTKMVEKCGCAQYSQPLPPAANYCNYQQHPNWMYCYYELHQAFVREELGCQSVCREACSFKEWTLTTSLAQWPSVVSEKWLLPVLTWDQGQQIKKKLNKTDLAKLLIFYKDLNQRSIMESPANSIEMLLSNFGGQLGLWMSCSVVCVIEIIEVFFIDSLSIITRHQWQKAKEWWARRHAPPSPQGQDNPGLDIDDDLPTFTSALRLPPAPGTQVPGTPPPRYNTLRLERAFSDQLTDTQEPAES
T1 sequence (A0A8I3Q679 1-649): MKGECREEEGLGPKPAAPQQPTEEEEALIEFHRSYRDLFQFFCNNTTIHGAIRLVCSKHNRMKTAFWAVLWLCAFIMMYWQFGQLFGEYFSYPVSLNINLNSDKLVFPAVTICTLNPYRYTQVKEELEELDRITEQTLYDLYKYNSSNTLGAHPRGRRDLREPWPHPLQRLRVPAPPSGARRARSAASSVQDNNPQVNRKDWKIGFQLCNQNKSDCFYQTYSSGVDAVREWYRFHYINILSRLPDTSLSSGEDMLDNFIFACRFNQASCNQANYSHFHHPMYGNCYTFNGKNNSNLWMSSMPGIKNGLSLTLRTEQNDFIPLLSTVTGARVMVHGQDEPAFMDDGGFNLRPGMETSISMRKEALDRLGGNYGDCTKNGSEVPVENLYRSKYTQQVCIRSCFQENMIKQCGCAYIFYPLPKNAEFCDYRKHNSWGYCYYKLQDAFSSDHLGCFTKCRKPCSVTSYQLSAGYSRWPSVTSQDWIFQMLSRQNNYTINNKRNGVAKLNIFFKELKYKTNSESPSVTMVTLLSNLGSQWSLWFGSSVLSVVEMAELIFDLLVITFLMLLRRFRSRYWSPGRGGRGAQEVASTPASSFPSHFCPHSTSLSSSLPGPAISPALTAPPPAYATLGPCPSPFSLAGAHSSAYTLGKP
T1 sequence (Q95165 1-641): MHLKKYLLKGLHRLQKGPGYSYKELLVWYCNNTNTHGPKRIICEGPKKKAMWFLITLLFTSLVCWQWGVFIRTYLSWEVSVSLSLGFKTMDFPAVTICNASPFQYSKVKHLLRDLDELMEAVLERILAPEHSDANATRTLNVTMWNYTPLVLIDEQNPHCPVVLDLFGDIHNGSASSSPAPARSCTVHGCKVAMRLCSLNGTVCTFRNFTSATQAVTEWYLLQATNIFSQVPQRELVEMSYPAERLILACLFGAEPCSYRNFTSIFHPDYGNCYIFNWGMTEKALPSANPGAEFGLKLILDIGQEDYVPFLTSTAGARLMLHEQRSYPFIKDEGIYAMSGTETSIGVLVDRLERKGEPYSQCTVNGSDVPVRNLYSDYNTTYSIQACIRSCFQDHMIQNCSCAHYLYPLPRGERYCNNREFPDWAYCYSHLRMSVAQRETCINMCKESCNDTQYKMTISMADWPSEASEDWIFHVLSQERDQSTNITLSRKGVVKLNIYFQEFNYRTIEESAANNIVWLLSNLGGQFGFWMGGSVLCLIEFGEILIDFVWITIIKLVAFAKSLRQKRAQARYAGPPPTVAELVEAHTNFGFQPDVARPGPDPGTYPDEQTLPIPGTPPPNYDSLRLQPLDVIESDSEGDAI
Experiment: Sodium channel blocking activity: inhibition of short circuit current (ISC) in airway epithelial monolayers mounted in Ussing chambers
Type: cell-based, human, dog, sheep or rodent
Conditions: for Fold Amiloride** (PSA 4022 = 100): relative potency for PSA 4022 = 100 using EC50 from PSA 4022 in same run; for EC50: mean ± spread
Experimental: In Vitro Measure of Sodium Channel Blocking Activity and Reversibility
One assay used to assess mechanism of action and/or potency of the compounds of the present invention involves the determination of lumenal drug inhibition of airway epithelial sodium currents measured under short circuit current (ISC) using airway epithelial monolayers mounted in Ussing chambers. Cells obtained from freshly excised human, dog, sheep or rodent airways are seeded onto porous 0.4 micron Snapwell™ Inserts (CoStar), cultured at air-liquid interface (ALI) conditions in hormonally defined media, and assayed for sodium transport activity (ISC) while bathed in Krebs Bicarbonate Ringer (KBR) in Using chambers. All test drug additions are to the lumenal bath with half-log dose addition protocols (from 1×10^−11 M to 3×10^−5 M), and the cumulative change in ISC (inhibition) recorded. All drugs are prepared in dimethyl sulfoxide as stock solutions at a concentration of 1×10^−2 M and stored at −20° C. Eight preparations are typically run in parallel; two preparations per run incorporate amiloride and/or benzamil as positive controls. After the maximal concentration (5×10^−5 M) is administered, the lumenal bath is exchanged three times with fresh drug-free KBR solution, and the resultant ISC measured after each wash for approximately 5 minutes in duration. Reversibility is defined as the percent return to the baseline value for sodium current after the third wash. All data from the voltage clamps are collected via a computer interface and analyzed off-line.
Dose-effect relationships for all compounds are considered and analyzed by the Prism 3.0 program. IC50 values, maximal effective concentrations, and reversibility are calculated and compared to amiloride and benzamil as positive controls.

[1] = Selected Alaphatic Pyrazinoylguanidines (Formula II)
[2] = Selected Cyclic Pyrazinoylguanidines (Formula III)

| SMILES | Fold Amiloride** (PSA 4022 = 100) (Alaphatic Pyrazinoylguanidines) | EC50 [1] [nM] | also measured |
| --- | --- | --- | --- |
| CN(C)C(=O)COc1ccc(CCCCNC(=N)NC(=O)c2nc(Cl)c(N)nc2N)cc1 [compound 16313, 2-(4-{4-[N-(3,5-diamino-6-chloropyrazine-2-carbonyl)guanidino]-butyl}phenoxy)-N,N-dimethylacetamide hydrochloride] | – | – | Fold Amiloride** (PSA 4022 = 100) (Capped Pyrazinoylguanidines): 41 ± 7 |
| N=C(NCCCCc1ccc(OCC(=O)NCC(N)=O)cc1)NC(=O)c1nc(Cl)c(N)nc1N [compound 16314, N-carbamoylmethyl-2-(4-{4-[N′-(3,5-diamino-6-chloropyrazine-2-carbonyl)guanidino]butyl}phenoxy)acetamide] | – | – | Fold Amiloride** (PSA 4022 = 100) (Capped Pyrazinoylguanidines): 41 ± 6 |
| N=C(NCCCCc1ccc(OCC(=O)Nc2ncc[nH]2)cc1)NC(=O)c1nc(Cl)c(N)nc1N [compound 16437, 2-(4-{4-[N′-(3,5-diamino-6-chloropyrazine-2-carbonyl)guanidino]-butyl}phenoxy)-N-(1H-imidazol-2-yl)acetamide dihydrochloride] | – | – | Fold Amiloride** (PSA 4022 = 100) (Capped Pyrazinoylguanidines): 77 ± 53 |
| N=C(NCCCCCCN)NC(=O)c1nc(Cl)c(N)nc1N [compound 18706, N-(6-aminohexyl)-N′-(3,5-diamino-6-chloropyrazine-2-carbonyl)guanidine dihydrochloride] | 4 ± 1 | 254 ± 118 | – |
| N=C(N)NCCCCCCCCCNC(=N)NC(=O)c1nc(Cl)c(N)nc1N [compound 19006, N-{9-[N′-(3,5-diamino-6-chloropyrazine-2-carbonyl)guanidino]nonyl}guanidine dihydrochloride] | 11 ± 2 | 60 ± 15 | – |
| N=C(N)NCCCCCCCNC(=N)NC(=O)c1nc(Cl)c(N)nc1N [compound 19155, N-{7-[N′-(3,5-diamino-6-chloropyrazine-2-carbonyl)guanidino]heptyl}guanidine dihydrochloride] | 8 ± 7 | 81 ± 45 | – |
| N=C(NCCCCCCCCCN)NC(=O)c1nc(Cl)c(N)nc1N [compound 19335, N-(9-aminononyl)-N′-(3,5-diamino-6-chloropyrazine-2-carbonyl)-guanidine dihydrochloride] | 19 ± 7 | – | – |
| N=C(NCCCCCCCCN)NC(=O)c1nc(Cl)c(N)nc1N [compound 19336, N-(8-aminooctyl)-N′-(3,5-diamino-6-chloropyrazine-2-carbonyl)-guanidine dihydrochloride] | 12 ± 3 | 76 ± 18 | – |
| N=C(NCCCCCCCCCCN)NC(=O)c1nc(Cl)c(N)nc1N [compound 19487, N-(10-aminodecyl)-N′-(3,5-diamino-6-chloropyrazine-2-carbonyl)-guanidine dihydrochloride] | 37 ± 1 | 25 ± 11 | – |
| N=C(N)NCCCCCCCCNC(=N)NC(=O)c1nc(Cl)c(N)nc1N [compound 19604, N-{8-[N′-(3,5-diamino-6-chloropyrazine-2-carbonyl)guanidino]octyl}-guanidine dihydrochloride] | 63 ± 61 | 25 ± 27 | – |
| N=C(N)NCCCCCCCCCCNC(=N)NC(=O)c1nc(Cl)c(N)nc1N [compound 23608, N-{10-[N′-(3,5-diamino-6-chloropyrazine-2-carbonyl)guanidino]-decyl}guanidine dihydrochloride] | 41 ± 29 | 17 ± 8 | – |
| N=C(NCCCCCCCCCCCCN)NC(=O)c1nc(Cl)c(N)nc1N [compound 23609, N-(12-aminododecyl)-N′-(3,5-diamino-6-chloropyrazine-2-carbonyl)-guanidine dihydrochloride] | 66 ± 36 | 13 ± 7 | – |
| N=C(NCCCCCCCCCCCN)NC(=O)c1nc(Cl)c(N)nc1N [compound 23682, N-(11-aminoundecyl)-N′-(3,5-diamino-6-chloropyrazine-2-carbonyl)guanidine dihydrochloride] | 51 ± 15 | 12 ± 3 | – |
| N=C(N)NCCCCCCCCCCCCNC(=N)NC(=O)c1nc(Cl)c(N)nc1N [compound 23683, N-{12-[N′-(3,5-diamino-6-chloropyrazine-2-carbonyl)guanidino]dodecyl)guanidine dihydrochloride] | 68 ± 48 | 41 ± 68 | – |
| N=C(N)NCCCCCCCCCCCNC(=N)NC(=O)c1nc(Cl)c(N)nc1N [compound 23991, N-{11-[N′-(3,5-diamino-6-chloropyrazine-2-carbonyl)guanidino]-undecyl}guanidine dihydrochloride] | 20 ± 12 | 64 ± 77 | – |
| N=C(NCCCCc1ccc(C[C@@H](N)CC(=O)O)cc1)NC(=O)c1nc(Cl)c(N)nc1N [compound 24407] | – | – | Fold Amiloride** (PSA 4022 = 100) (Capped Pyrazinoylguanidines): 23 ± 4 |
| N=C(NCCCCC1CCN(CCO)CC1)NC(=O)c1nc(Cl)c(N)nc1N [compound 25193, N-(3,5-diamino-6-chloropyrazine-2-carbonyl)-N′-{4-[1-(2-hydroxyethyl)piperidin-4-yl]butyl}guanidine dihydrochloride] | – | – | Fold Amiloride** (PSA 4022 = 100) (Cyclic Pyrazinoylguanidines): 8 ± 3; EC50 [2]: 99 ± 14 nM |
| N=C(NCCCCC1CCN(CCCO)CC1)NC(=O)c1nc(Cl)c(N)nc1N [compound 25310, N-(3,5-Diamino-6-chloropyrazine-2-carbonyl)-N′-{4-[1-(3-hydroxypropyl)piperidin-4-yl]butyl}guanidine dihydrochloride] | – | – | Fold Amiloride** (PSA 4022 = 100) (Cyclic Pyrazinoylguanidines): 5 ± 2; EC50 [2]: 169 ± 47 nM |
| CC(C)(C)OC(=O)NCCCN1CCC(CCCCNC(N)=NC(=O)c2nc(Cl)c(N)nc2N)CC1 [compound 25452, [3-(4-{4-[N′-(3,5-diamino-6-chloropyrazine-2-carbonyl)guanidino]butyl}piperidin-1-yl)propyl]carbamic acid tert-butyl ester] | – | – | Fold Amiloride** (PSA 4022 = 100) (Cyclic Pyrazinoylguanidines): 8 ± 1; EC50 (Selected Cyclic Pyrazinoylguanidines (Formula III), read-out: EC50): 60 ± 6 nM |

— patent US20050090505A1, “Methods of reducing risk of infection from pathogens” (priority 2003, published 2005)
